This note sets out measurements from patent publication US5391540A, “Substituted pyridine compounds” (Rohm and Haas Company, priority 1993, dated 1995).

Common to all, as to assay: Pre-emergent herbicidal activity (Table A)
Common to all, as to assay type: in vivo

The subject of assay [1] is Yellow Nutsedge. As to conditions: Cyperus, pre-emergence, Yens, 11.2 kg/ha, 10-14 days, read-out: herbicidal rating (% inhibition). The procedure:
(§1) The herbicidal ratings used in Tables A and B were assigned according to a scale based on the percent inhibition of each plant species. The herbicide rating symbols in Tables A and B are defined as follows: […]
(§2) One set of pre-emergent tests was conducted as follows:
(§3) Topsoil was placed in a pan and compacted to a depth of 0.95 to 1.27 cm. from the top of the pan. A predetermined number of seeds of each of several monocotyledonous and dicotyledonous annual plant species and/or vegetative propagules of various perennial plant species were placed on top of the soil. The soil required to level fill a pan after seeding or adding vegetative propagules was weighed into another pan. A known amount of the test compound dissolved or suspended in an organic solvent or water and applied in acetone or water as a carrier was thoroughly mixed with this cover soil, and the herbicide/soil mixture was used as a cover layer for the previously prepared pan.
(§4) The plant species usually regarded as weeds which were utilized in one set of pre-emergent activity tests, the data for which are shown in Table A, are identified by letter headings printed diagonally above the columns according to the following legend: […]

For assay [2], the system named is Quackgrass. As to conditions: pre-emergence, Rhqg, 11.2 kg/ha, 10-14 days, read-out: herbicidal rating (% inhibition). The procedure: as §1, §2, §3, §4
The test system of assay [3] is Cocklebur. As to conditions: Xanthium strumarium, pre-emergence, Cobu, 11.2 kg/ha, 10-14 days, read-out: herbicidal rating (% inhibition). Here is the method:
as §1, §2, §3, §4

Assay [4] relates to Pennsylvania Smartweed. As to conditions: pre-emergence, Pesw, 11.2 kg/ha, 10-14 days, read-out: herbicidal rating (% inhibition). The procedure:
as §1, §2, §3, §4

For assay [5], the system named is Velvetleaf. As to conditions: Abutilon theophrasti, pre-emergence, Vele, 11.2 kg/ha, 10-14 days, read-out: herbicidal rating (% inhibition). Here is the method:
as §1, §2, §3, §4

Assay [6] deals with Rhizome Johnsongrass. Conditions: Sorghum halepense, pre-emergence, Rhjg, 11.2 kg/ha, 10-14 days, read-out: herbicidal rating (% inhibition). Here is the method:
as §1, §2, §3, §4

The test system of assay [7] is Morningglory. Conditions: Ipomoea, pre-emergence, Mogl, 11.2 kg/ha, 10-14 days, read-out: herbicidal rating (% inhibition). The procedure: as §1, §2, §3, §4
Assay [8] has as its system Canada thistle. Conditions: Cirsium arvense, pre-emergence, Cath, 11.2 kg/ha, 10-14 days, read-out: herbicidal rating (% inhibition). Here is the method: as §1, §2, §3, §4
Assay [9] has as its system Downy Brome. As to conditions: Bromus tectorum, pre-emergence, Dobr, 11.2 kg/ha, 10-14 days, read-out: herbicidal rating (% inhibition). The procedure:
as §1, §2, §3, §4

Assay [10] concerns Barnyardgrass. As to conditions: Echinochloa crus-galli, pre-emergence, Bygr, 11.2 kg/ha, 10-14 days, read-out: herbicidal rating (% inhibition). Here is the method:
as §1, §2, §3, §4

Assay [11] relates to Common Lambsquarters. As to conditions: Chenopodium album, pre-emergence, Colq, 11.2 kg/ha, 10-14 days, read-out: herbicidal rating (% inhibition). The procedure: as §1, §2, §3, §4

The term inhibition denotes the drop in the measured response relative to a control, in per cent. Regarding `COC=Nc1c(C(F)(F)F)nc(OC)c(C(=O)OC)c1CC(C)C` [Compound 76, 3-pyridinecarboxylic acid, 2-methoxy-5-[(methoxymethylene)amino]-4-(2-methylpropyl)-6-(trifluoromethyl)-, methyl ester], the inhibition at 11200 g/ha in assay [1] was in the range of 50 to 74%; in [2], 75 to 100%; in assay [3], 0 to 24%; in assay [4], 75 to 100%; in assay [5], 75 to 100%; in assay [6], 50 to 74%. Also, the inhibition at 11200 g/ha in assay [7], in assay [8], in assay [9], in assay [10] and in [11] was 75 to 100% throughout.

For the compound `COC(=O)c1c(OC)nc(C(F)(F)F)c(C(=O)OC)c1C` [Compound 86, 3,5-pyridinedicarboxylic acid, 2-methoxy-4-methy1-6-(trifluoromethyl)-, dimethyl ester], the inhibition at 11200 g/ha in [1] was in the range of 0 to 24%; in [2], 75 to 100%; in [3], 0 to 24%; in assay [4], 50 to 74%; in assay [5], 50 to 74%; in [6] it was 75 to 100%. Besides, the inhibition at 11200 g/ha lay in the range of 75 to 100% in [7]; 0 to 24% in assay [8]; 75 to 100% in assay [9]; 75 to 100% in assay [10]; 75 to 100% in [11].

For `CCSC=Nc1c(C(F)(F)F)nc(OC)c(C(=O)OC)c1CC(C)C` [Compound 78, 3-pyridinecarboxylic acid, 5-[[(ethylthio)methylene]amino]-2-methoxy-4-(2-methylpropyl)-6-(trifluoromethyl)-, methyl ester], the inhibition at 11200 g/ha lay in the range of 0 to 24% in [1]; 50 to 74% in assay [2]; 0 to 24% in assay [3]; 75 to 100% in assay [4]; 75 to 100% in [5]; 0 to 24% in [6]. Also, the inhibition at 11200 g/ha in assay [7], in assay [8], in [9], in assay [10] and in assay [11] was 75 to 100% each time.

Consider `COc1nc(C(F)(F)F)c(C(=O)SC)c(CC(C)C)c1C(=O)SC` [Compound 47, 3,5-pyridinedicarbothioic acid, 2-methoxy-4-(2-methylpropyl)-6-(trifluoromethyl)-, S,S,-dimethyl ester], for which the inhibition at 11200 g/ha is 75 to 100% in assay [1]; 75 to 100% in assay [2]; 25 to 49% in assay [3]; 75 to 100% in assay [4]; 75 to 100% in [5]; 75 to 100% in [6]. Further, the inhibition at 11200 g/ha in assay [7], in [8], in [9], in [10] and in assay [11] was 75 to 100% each time.

On to `COC(=O)c1c(C(F)(F)F)nc(OC)c(C2=NCCO2)c1CC(C)C` [Compound 27, 3-pyridinecarboxylic acid, 5-(4,5-dihydro-2-oxazolyl)-6-methoxy-4-(2-methylpropyl)-2-(trifluoromethyl)-, methyl ester], for which the inhibition at 11200 g/ha in [1] lay within 50 to 74%; in assay [2], 75 to 100%; in [3] it was 25 to 49%; in assay [4] it was 75 to 100%; in assay [5], 75 to 100%; in assay [6], 0 to 24%. For the same compound, the inhibition at 11200 g/ha in [7], in assay [8], in [9], in [10] and in assay [11] was 75 to 100% each time.

Regarding `CCOC(=O)c1c(OC(C)C)nc(C(F)(F)F)c(C(=O)OC)c1CC(C)C` [Compound 5, 3,5-pyridinedicarboxylic acid, 2-(1-methylethoxy)-4-(2-methylpropyl)-6-(trifluoromethyl)-, 3-ethyl 5-methyl ester], the inhibition at 11200 g/ha in [1] is 0 to 24%; in assay [2], 50 to 74%; in assay [3], 0 to 24%; in assay [4] it was 25 to 49%; in [5], 0 to 24%; in assay [6] it was 75 to 100%. Moreover, the inhibition at 11200 g/ha was in the range of 0 to 24% in assay [7]; 0 to 24% in assay [8]; 75 to 100% in [9]; 75 to 100% in assay [10]; 75 to 100% in [11].

As for `CCCCOC(=O)c1c(C(F)(F)F)nc(OC)c(C(=O)OC)c1CC(C)C` [Compound 16, 3,5-pyridinedicarboxylic acid, 2-methoxy-4-(2-methylpropyl)-6-(trifluoromethyl)-, 5 butyl 3-methyl ester], the inhibition at 11200 g/ha in assay [1] was in the range of 0 to 24%; in assay [2], 75 to 100%; in assay [3], 0 to 24%; in assay [4] it was 75 to 100%; in [5], 75 to 100%; in [6], 0 to 24%. Besides, the inhibition at 11200 g/ha was in the range of 75 to 100% in assay [7]; 50 to 74% in [8]; 75 to 100% in assay [9]; 75 to 100% in assay [10]; 75 to 100% in assay [11].

Turning to `CCOc1nc(C(F)(F)F)c(C(=O)OC)c(CC(C)C)c1C(=O)OC` [Compound 6, 3,5-pyridinedicarboxylic acid, 2-ethoxy-4-(2-methylpropyl)-6-(trifluoromethyl)-, dimethyl ester], the inhibition at 11200 g/ha lay in the range of 25 to 49% in [1]; 75 to 100% in assay [2]; 25 to 49% in assay [3]; 75 to 100% in assay [4]; 75 to 100% in [5]; 75 to 100% in assay [6]. Besides, the inhibition at 11200 g/ha in assay [7], in [8], in assay [10] and in [11] was 75 to 100% in each case.

For `CCOc1nc(C(F)(F)F)c(C(=O)OC)c(CC(C)C)c1C(=O)O` [Compound 18, 3,5-pyridinedicarboxylic acid, 2-ethoxy-4-(2-methylpropyl)-6-(trifluoromethyl)-, 5-methyl ester], the inhibition at 11200 g/ha in assay [1] fell in the range of 0 to 24%; in assay [2], 0 to 24%; in assay [3], 25 to 49%; in assay [4], 0 to 24%; in assay [5], 0 to 24%; in assay [6] it was 0 to 24%. Besides, the inhibition at 11200 g/ha in assay [7] was in the range of 0 to 24%; in assay [8] it was 0 to 24%; in [10], 0 to 24%; in assay [11] it was 50 to 74%.

Take `CCOc1nc(C(F)(F)F)c(C(=O)SC)c(CC(C)C)c1C(=O)SC` [Compound 19, 3,5-pyridinedicarbothioic acid, 2-ethoxy-4-(2-methylpropyl)-6-(trifluoromethyl)-, S,S-dimethyl ester]: the inhibition at 11200 g/ha in assay [1] lay within 0 to 24%; in assay [2] it was 75 to 100%; in assay [3] it was 25 to 49%; in [4] it was 75 to 100%; in [5], 75 to 100%; in assay [6] it was 0 to 24%. In addition, the inhibition at 11200 g/ha in [7] fell in the range of 50 to 74%; in assay [8] it was 25 to 49%; in assay [10], 75 to 100%; in assay [11], 75 to 100%.

For the compound `CCOc1nc(C(F)(F)F)c(C(=O)OC)c(CC(C)C)c1C(=O)N(C)C` [Compound 17, 3-pyridinecarboxylic acid, 5-[(dimethylamino)carbony]-6-ethoxy-4-(2-methylpropyl)-2-(trifluoromethyl)-, methyl ester], the inhibition at 11200 g/ha in [1], in assay [2], in assay [3], in assay [4], in [5] and in assay [6] was 0 to 24% throughout. Besides, the inhibition at 11200 g/ha in [7] fell in the range of 0 to 24%; in assay [8], 0 to 24%; in assay [10], 75 to 100%; in assay [11], 50 to 74%.
